Laboratory results as given in US7838528B2, “Substituted bicyclic 8-pyrrolidinoxanthines, methods for their production, pharmaceutical formulations and their use” (sanofi-aventis Deutschland GmbH, priority 2004, dated 2010).
Where a name gives a salt, the structure may show the parent alone.

molecular target: T1, DPP-IV from porcine kidney (Sus scrofa, UniProt P22411); assay: Measurement of the DPP-IV activity (H-Ala-Pro-AFC fluorimetric assay); assay type: biochemical; settings: H-Ala-Pro-AFC 15 μM, DPP-IV 1 mU/ml, Tris/HCl pH 7.4, room temperature
T1 construct: DPP-IV from porcine kidney (Sigma Chemical GmbH, Munich DE); purchased Sigma Chemical GmbH, Munich DE; host or cells: porcine kidney (tissue-derived enzyme)
Description: Measurement of the DPP-IV Activity: […]
a) DPP-IV from porcine kidney (Sigma Chemical GmbH, Munich DE) b) H-Ala-Pro-AFC (Bache Chemical Co., Weil am Rheine DE) […]
c) DPP-IV (1 mU/ml, final concentration) d) H-Ala-Pro-AFC (15 μM, final concentration) • in Tris/HCl (40 mM, pH 7.4), total volume 0.2 ml The reaction was carried out at room temperature at different reaction times (typically 10 min) and stopped at the end of the reaction by adding 20 μl of ZnCl2 (1 M). The H-Ala-Pro-AFC conversion was determined fluorimetrically by measuring the emission at 535 nm after excitation at 405 nm. When inhibitors were added, the added buffer volume was adapted so that a total volume of 200 μl was maintained for the assay mixture.
IC50 values for inhibitors were determined by varying the inhibitor concentrations with the stated substrate concentration of 15 μM. Ki and Km values were found by appropriate variation of substrate concentration and inhibitor concentration as described (Dixon, M. and Webb, E. C. (1979) Enzymes, third edition, pp. 47-206, Academic Press) which is herein incorporated by reference. The values for Km, IC50 and Ki were calculated using a commercially available software package (Leatherbarrow, R. J. (1992) GraFit Version 3.0, Erithacus Software Ltd. Staines, U.K.).

T1 sequence (P22411 whole entry): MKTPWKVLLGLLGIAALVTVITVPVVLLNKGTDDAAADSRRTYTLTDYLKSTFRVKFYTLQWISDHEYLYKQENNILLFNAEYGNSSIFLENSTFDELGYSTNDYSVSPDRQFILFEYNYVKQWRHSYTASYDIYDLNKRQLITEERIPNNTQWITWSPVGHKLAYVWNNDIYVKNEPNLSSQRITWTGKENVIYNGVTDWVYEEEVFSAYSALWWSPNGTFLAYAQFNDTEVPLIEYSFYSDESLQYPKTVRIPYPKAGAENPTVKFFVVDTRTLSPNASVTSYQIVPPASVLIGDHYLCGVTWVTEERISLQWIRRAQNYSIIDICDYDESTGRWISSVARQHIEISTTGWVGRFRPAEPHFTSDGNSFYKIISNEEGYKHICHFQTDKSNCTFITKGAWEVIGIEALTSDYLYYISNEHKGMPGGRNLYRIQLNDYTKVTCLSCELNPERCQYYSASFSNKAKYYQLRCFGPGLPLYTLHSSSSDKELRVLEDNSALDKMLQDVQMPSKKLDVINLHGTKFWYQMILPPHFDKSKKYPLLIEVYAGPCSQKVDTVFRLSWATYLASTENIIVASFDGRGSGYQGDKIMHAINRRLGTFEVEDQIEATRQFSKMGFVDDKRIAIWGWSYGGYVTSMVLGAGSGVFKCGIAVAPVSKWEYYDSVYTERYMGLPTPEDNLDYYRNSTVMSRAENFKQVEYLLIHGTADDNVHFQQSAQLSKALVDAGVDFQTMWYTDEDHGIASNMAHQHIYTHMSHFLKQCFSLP

Row | Compound | IC50
1 | CC(C)=CCn1c(N2CC[C@@H]3NCC[C@@H]32)nc2c1c(=O)n(CC(=O)c1ccccc1)c(=O)n2C (relative stereo) [Example 1, 8-(cis-Hexahydro-pyrrolo[3,2-b]pyrrol-1-yl)-3-methyl-7-(3-methyl-but-2-enyl)-1-(2-oxo-2-phenyl-ethyl)-3,7-dihydropurine-2,6-dione hydrochloride] | 0.034 µM
2 | CC(C)=CCn1c(N2CC[C@@H]3NCC[C@@H]32)nc2c1c(=O)n(CC(=O)c1ccccc1)c(=O)n2C (single isomer, unassigned) [Example 1a, 8-(cis-Hexahydro-pyrrolo[3,2-b]pyrrol-1-yl)-3-methyl-7-(3-methyl-but-2-enyl)-1-(2-oxo-2-phenyl-ethyl)-3,7-dihydro-purine-2,6-dione] | 0.16 µM
3 | CC(C)=CCn1c(N2CC[C@@H]3NCC[C@@H]32)nc2c1c(=O)n(CC(=O)c1ccccc1)c(=O)n2C (single isomer, unassigned) [Example 1b, 8-(cis-Hexahydro-pyrrolo[3,2-b]pyrrol-1-yl)-3-methyl-7-(3-methyl-but-2-enyl)-1-(2-oxo-2-phenyl-ethyl)-3,7-dihydro-purine-2,6-dione] | 0.018 µM
